Laboratory results: ChEMBL document CHEMBL5523719, “Structure-activity relationship study of new carbazole sulfonamide derivatives as anticancer agents with dual-target mechanism” (Eur J Med Chem, 2024)
Active and inactive are the calls of the source. No cut-off for these calls is given here.

Assays:
MIA PaCa-2 = assay: Antiproliferation activity against human MIA PaCa-2 cells measured after 72 hrs incubation by MTT assay; assay type: functional, cell-based; conditions: MIA PaCa-2, 72 h
KB = assay: Antiproliferation activity against human KB cells measured after 72 hrs incubation by MTT assay; assay type: functional, cell-based
NCI-H460 = assay: Antiproliferation activity against human NCI-H460 cells measured after 72 hrs incubation by MTT assay; assay type: functional, cell-based; conditions: NCI-H460, 72 h
MDA-MB-231 = assay: Antiproliferation activity against human MDA-MB-231 cells measured after 72 hrs incubation by MTT assay; assay type: functional, cell-based; conditions: MDA-MB-231, 72 h
L02 = assay: Antiproliferation activity against human L02 cells measured after 72 hrs incubation by MTT assay; assay type: functional, cell-based; conditions: L02, 72 h
[1] = Solubility of the compound; assay type: physicochemical
Bel-7402 = assay: Antiproliferation activity against human Bel-7402 cells measured after 72 hrs incubation by MTT assay; assay type: functional, cell-based; conditions: Bel-7402, 72 h
HMEC-1 [2] = assay: Anti-proliferative activity against human HMEC-1 cells measured after 48 hrs; assay type: functional, cell-based; conditions: HMEC-1, 48 h
MCF7 [3] = assay: Induction of cell cycle arrest in human MCF7 cells assessed as accumulation of cells at G2/M phase at 500 nM measured after 24 hrs by flow cytometry (reference value: 22.84%); assay type: functional
MCF7 [4] = assay: Induction of cell cycle arrest in human MCF7 cells assessed as accumulation of cells at G0/G1 phase at 500 nM measured after 24 hrs by flow cytometry (reference value: 61.73%); assay type: functional
NCI/ADR-RES = assay: Antiproliferation activity against human MCF7/ADR cells measured after 72 hrs incubation by MTT assay; assay type: functional, cell-based
MCF7 [5] = assay: Antiproliferation activity against human MCF7 cells measured after 72 hrs incubation by MTT assay; assay type: functional, cell-based; conditions: MCF7, 72 h
MCF7 [6] = assay: In vivo antitumor activity against human MCF7 cells xenografted in BALB/c mouse assessed as decrease in tumor volume treated at 50 mg/kg, iv every other day for 26 days relative to control; assay type: functional; conditions: MCF7, 624 h, time 26 day
HepG2 [7] = assay: In vivo antitumor activity against human HepG2 cells xenografted in mouse assessed as inhibition of tumor growth treated at 50 mg/kg, iv every other day for 22 days relative to control; assay type: functional; conditions: HepG2, 528 h, time 22 day, read-out: TGI
MCF7 [8] = assay: In vivo antitumor activity against human MCF7 cells xenografted in BALB/c mouse assessed as inhibition of Ki-67 expression treated at 50 mg/kg, iv every other day for 26 days; assay type: functional, organism-based; conditions: time 26.0 day
[9] = Toxicity in mouse xenografted with human HepG2 cells assessed as body weight change at 10 to 20 mg/kg, iv every other day for 22 days; assay type: organism-based; conditions: in vivo, 528 h, dose 10-20 mg/kg, time 22 day
MCF7 [10] = assay: In vivo antitumor activity against human MCF7 cells xenografted in BALB/c mouse assessed as increase in cleaved caspase-3 treated at 50 mg/kg, iv every other day for 26 days; assay type: functional, organism-based; conditions: time 26.0 day
HepG2 [11] = assay: In vivo antitumor activity against human HepG2 cells xenografted in mouse assessed as inhibition of tumor growth treated iv every other day for 22 days; assay type: functional, organism-based; conditions: time 22.0 day
MCF7 [12] = assay: Induction of apoptosis in human MCF7 cells assessed as necrotic cells at 50 nM measured after 48 hrs by AnnexinV/PI double staining assays (reference value: 0.89%); assay type: functional
MCF7 [13] = assay: Induction of apoptosis in human MCF7 cells assessed as multinuclear cells at 50 nM measured after 24 hrs by fluorescent microscopy; assay type: functional, cell-based
HMEC-1 [14] = assay: Anti-migration activity in human HMEC-1 cells assessed as inhibition of cell migration at 5 nM measured after 48 hrs by Scratching assay; assay type: functional, cell-based
MCF7 [15] = assay: Induction of apoptosis in human MCF7 cells assessed as viable cells at 50 nM measured after 48 hrs by AnnexinV/PI double staining assays (reference value: 91.20%); assay type: functional; conditions: read-out: Activity
HMEC-1 [16] = assay: Angiogenic activity against human HMEC-1 cells assessed as decrease in vascular area measured after 48 hrs by Endothelial tube formation assay; assay type: functional, cell-based; conditions: dose 1-100 nM
MCF7 [17] = assay: Induction of apoptosis in human MCF7 cells assessed as late apoptotic cells at 50 nM measured after 48 hrs by AnnexinV/PI double staining assays (reference value: 2.60%); assay type: functional
MCF7 [18] = assay: Induction of apoptosis in human MCF7 cells assessed as early apoptotic cells at 50 nM measured after 48 hrs by AnnexinV/PI double staining assays (reference value: 5.32%); assay type: functional
[19] = Initial plasma concentration in Sprague-Dawley rat at 10 mg/kg, iv; assay type: ADME, organism-based
[20] = Clearance in Sprague-Dawley rat at 10 mg/kg, iv; assay type: ADME, organism-based; conditions: in vivo
HepG2 [21] = assay: In vivo antitumor activity against human HepG2 cells xenografted in mouse assessed as inhibition of tumor growth treated at 20 mg/kg, iv every other day for 22 days relative to control; assay type: functional; conditions: HepG2, 528 h, time 22 day, read-out: TGI
[22] = MRT (0 to last) in Sprague-Dawley rat at 10 mg/kg, iv; assay type: ADME, organism-based; conditions: in vivo
[23] = AUC (0 to last) in Sprague-Dawley rat at 10 mg/kg, iv; assay type: ADME, organism-based; conditions: in vivo
[24] = Half life in Sprague-Dawley rat at 10 mg/kg, iv; assay type: ADME, organism-based; conditions: in vivo

Row | Compound | IC50 (MIA PaCa-2) [nM] | IC50 (KB) [nM] | IC50 (NCI-H460) [nM] | IC50 (MDA-MB-231) [nM] | IC50 (L02) [nM] | solubility [1] [µg/mL] | IC50 (Bel-7402) [nM] | also measured
1 | COc1ccc(OC)c(NS(=O)(=O)c2ccc3c(c2)c2ccc(O)cc2n3C)c1 | 0.85 | 17.5 | 12.5 | 0.93 | 45.6 | – | – | –
2 | COc1ccc(NS(=O)(=O)c2ccc3c(c2)c2ccc(N)cc2n3C)c(OC)n1 | 58.3 | 40.4 | 33 | 35.4 | 109 | < 100 | 520 | –
3 | COc1ccc(OC)c(NS(=O)(=O)c2ccc3c(c2)c2ccc(N)cc2n3C)c1 | 19.9 | 18.3 | 25.5 | 18.9 | 11.6 | – | – | –
4 | COc1ccc(NS(=O)(=O)c2ccc3c(c2)c2ccc(NC(=O)CCN(C)C)cc2n3C)c(OC)n1.Cl | – | – | – | – | – | 11000 | 5020 | –
5 | COc1ccc(NS(=O)(=O)c2ccc3c(c2)c2ccc(NC(=O)CCN4CCOCC4)cc2n3C)c(OC)n1.Cl | – | – | – | – | – | 13000 | 13700 | –
6 | COc1ccc(NS(=O)(=O)c2ccc3c(c2)c2ccc(NC(=O)CN)cc2n3C)c(OC)n1.Cl | – | – | – | – | – | 500 | 1200 | –
7 | COc1ccc(/C=C\c2cc(OC)c(OC)c(OC)c2)cc1O [COMBRETASTATIN A4] | – | – | – | – | – | – | – | IC50 (HMEC-1 [2]): 6.42 nM; Activity (MCF7 [3]): 3.4%; Activity (MCF7 [4]): 3.41%; IC50 (NCI/ADR-RES): 12.5 nM; IC50 (MCF7 [5]): 32.7 nM
8 | COc1ccc(/C=C\c2cc(OC)c(OC)c(OC)c2)cc1OP(=O)([O-])[O-].[Na+].[Na+] [FOSBRETABULIN DISODIUM] | 5.26 | 0.66 | 0.29 | 3.66 | 140 | – | – | inhibition in vivo at 50 mg/kg (MCF7 [6]): 77%; inhibition in vivo at 50 mg/kg (HepG2 [7]): 72%; Activity (MCF7 [8]): Active; Activity [9]: Non-Toxic; Activity (MCF7 [10]): Active
9 | COc1ccc(NS(=O)(=O)c2ccc3c(c2)c2ccc(NC(=O)CN4CCCCC4)cc2n3C)c(OC)n1.Cl | – | – | – | – | – | 4700 | 8210 | –
10 | COc1ccc(NS(=O)(=O)c2ccc3c(c2)c2ccc(NC(=O)[C@@H](N)CO)cc2n3C)c(OC)n1.Cl | – | – | – | – | – | 2000 | 1450 | TGI (HepG2 [11]): Dose-Dependent Effect; Activity [9]: Non-Toxic
11 | COc1cc(OC)c(NS(=O)(=O)c2ccc3c(c2)c2ccc(N)cc2n3C)c(OC)c1 | 31 | 18.1 | 14 | 39.9 | 30.9 | – | – | –
12 | COc1ccc(NS(=O)(=O)c2ccc3c(c2)c2ccc(O)cc2n3C)c(OC)n1 | 51.8 | 104 | 43.8 | 98.4 | 51.6 | < 100 | – | IC50 (HMEC-1 [2]): 6.42 nM; Activity (MCF7 [12]): 0.04%; Activity (MCF7 [13]): Active; inhibition (HMEC-1 [14]): Active; viability at 0.05 µM (MCF7 [15]): 45.6%; Activity (HMEC-1 [16]): Dose-Dependent Effect; Activity (MCF7 [17]): 5.65%; IC50 (NCI/ADR-RES): 88.2 nM; Activity (MCF7 [18]): 39.03%; IC50 (MCF7 [5]): 41.5 nM
13 | COc1ccc(NS(=O)(=O)c2ccc3c(c2)c2ccc(NC(=O)[C@@H](N)C(C)C)cc2n3C)c(OC)n1.Cl | – | – | – | – | – | 4000 | 480 | C0 [19]: 22000 ng/mL; clearance [20]: 72.9 mL/min/kg; inhibition in vivo at 20 mg/kg (HepG2 [21]): 71%; TGI (HepG2 [11]): Dose-Dependent Effect; Activity [9]: Non-Toxic; MRT last [22]: 7.26 min; AUC(0-t) [23]: 2290 ng·h/mL; half-life [24]: 34.4 min
14 | COc1ccc(NS(=O)(=O)c2ccc3c(c2)c2ccc(NC(=O)CCCN4CCOCC4)cc2n3C)c(OC)n1.Cl | – | – | – | – | – | 6800 | 8470 | –
15 | COc1ccc(NS(=O)(=O)c2ccc3c(c2)c2ccc(N)cc2n3C)c(OC)c1 | 57.2 | – | – | 155 | 42.2 | – | – | –
16 | COc1ccc(NS(=O)(=O)c2ccc3c(c2)c2ccc(O)cc2n3C)c(OC)c1 | 52.8 | 78.8 | 40.5 | 82.8 | 54.4 | – | – | –
17 | Cn1c2ccc(S(=O)(=O)Nc3cccc(-c4ccn[nH]4)c3)cc2c2ccc(N)cc21 | 61.2 | 244 | 325 | 72.5 | 94.5 | – | – | –
18 | COc1cc(OC)c(NS(=O)(=O)c2ccc3c(c2)c2ccc(N)cc2n3C)cc1Cl | 13.3 | 46 | 47.5 | 29 | 18 | – | – | –
19 | CC(=O)O[C@H]1C(=O)[C@@]2(C)[C@H]([C@H](OC(=O)c3ccccc3)[C@]3(O)C[C@H](OC(=O)[C@H](O)[C@@H](NC(=O)c4ccccc4)c4ccccc4)C(C)=C1C3(C)C)[C@]1(OC(C)=O)CO[C@@H]1C[C@@H]2O [PACLITAXEL] | – | – | – | – | – | – | – | IC50 (NCI/ADR-RES): 464 nM; IC50 (MCF7 [5]): 28.7 nM
20 | COc1ccc(NS(=O)(=O)c2ccc3c(c2)c2ccc(NC(=O)CN(C)C)cc2n3C)c(OC)n1.Cl | – | – | – | – | – | 25000 | 1400 | –
21 | COc1cc(OC)c(NS(=O)(=O)c2ccc3c(c2)c2ccc(O)cc2n3C)cc1Cl | 55.5 | 70 | 14.5 | 41.6 | 33 | – | – | –
22 | COc1cc([C@@H]2c3cc4c(cc3[C@H](O)[C@H]3COC(=O)[C@H]23)OCO4)cc(OC)c1OC [PODOFILOX] | 19.7 | 3.21 | 24.6 | 80.5 | 32.8 | – | 40 | –
23 | COc1cc(NS(=O)(=O)c2ccc3c(c2)c2ccc(N)cc2n3C)cc(OC)c1OC | 24.4 | 34.5 | 13.1 | 16.1 | 21 | – | – | –
24 | COc1ccc(NS(=O)(=O)c2ccc3c(c2)c2ccc(NC(=O)[C@@H](N)Cc4ccc(O)cc4)cc2n3C)c(OC)n1.Cl | – | – | – | – | – | 2000 | 1880 | –
25 | COc1cc(NS(=O)(=O)c2ccc3c(c2)c2ccc(N)cc2n3C)c(OC)cc1N | 33.2 | 80.2 | 76.3 | 85.7 | 30.9 | – | – | –
26 | CN1CCN(Cc2ccc(NS(=O)(=O)c3ccc4c(c3)c3ccc(O)cc3n4C)cc2C(F)(F)F)CC1 | > 400 | > 400 | > 400 | – | > 400 | – | – | –
27 | COc1cc(NS(=O)(=O)c2ccc3c(c2)c2ccc(O)cc2n3C)cc(OC)c1OC | 14.6 | 32 | 34.6 | 39.2 | 43.1 | – | – | –
28 | COc1ccc(NS(=O)(=O)c2ccc3c(c2)c2ccc(N)cc2n3C)cc1 | > 400 | > 400 | > 400 | > 400 | > 400 | – | – | –
29 | COc1ccc(NS(=O)(=O)c2ccc3c(c2)c2ccc(NC(=O)CN4CCN(C)CC4)cc2n3C)c(OC)n1.Cl | – | – | – | – | – | 27000 | 18700 | –
